Test results from US20130303509A1, “NAMPT INHIBITORS” (AbbVie Inc., priority 2012, published 2013).

Test system: PC3 cells
Assay: NAMPT Cell Proliferation Assay
Assay type: cell-based
Details: Homo sapiens, PC-3, 120 h, 5 days incubation, cell viability by Cell Titer Glo
In short: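 Seeded at 500 cells/well in RPMI with 10% heat-inactivated FBS and left to attach overnight at 37° C, 5% CO2. Compounds were added as 10-fold dilutions […] for 5 days, then viability was read by CellTiter-Glo. IC50s came from sigmoidal fits of percent inhibition.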

SMILES	IC50 [nM]
O=C(Nc1ccc(S(=O)(=O)C2CCN(C(=O)c3ccc(Cl)cc3Cl)CC2)cc1)C1CN(c2cccnn2)C1 [Example 590, N-(4-{[1-(2,4-dichlorobenzoyl)piperidin-4-yl]sulfonyl}phenyl)-1-(pyridazin-3-yl)azetidine-3-carboxamide]	82.2
CC(C)Cn1cc(-c2ccc(C(=O)N[C@H]3CCN(c4cccnn4)C3)o2)cn1 [Example 747, 5-[1-(2-methylpropyl)-1H-pyrazol-4-yl]-N-[(3S)-1-(pyridazin-3-yl)pyrrolidin-3-yl]furan-2-carboxamide]	5920
Cc1ncccc1N1CC(C(=O)Nc2ccc(C3CCN(C(=O)c4ccc(C(F)(F)F)cc4)CC3)cc2)C1 [Example 157, 1-(2-methylpyridin-3-yl)-N-(4-{1-[4-(trifluoromethyl)benzoyl]piperidin-4-yl}phenyl)azetidine-3-carboxamide]	948
CC(C)(C)CCN1CCC(c2ccc(NC(=O)C3CN(c4cccnc4)C3)cc2)CC1 [Example 87, N-{4-[1-(3,3-dimethylbutyl)piperidin-4-yl]phenyl}-1-(pyridin-3-yl)azetidine-3-carboxamide]	31.7
O=C(Nc1ccc(S(=O)(=O)C2CCN(C(=O)c3cccc(C(F)(F)F)c3)CC2)cc1)C1CN(c2cccnn2)C1 [Example 584, 1-(pyridazin-3-yl)-N-[4-({1-[3-(trifluoromethyl)benzoyl]piperidin-4-yl}sulfonyl)phenyl]azetidine-3-carboxamide]	87.2
O=C(Nc1ccc(-c2cc(C3CC3)nn2CCO)cc1)C1CN(c2cccnn2)C1 [Example 817, N-{4-[3-cyclopropyl-1-(2-hydroxyethyl)-1H-pyrazol-5-yl]phenyl}-1-(pyridazin-3-yl)azetidine-3-carboxamide]	64.1
CC(C)C(=O)N1CCC(Oc2ccc(NC(=O)C3CN(c4ccnnc4)C3)cc2)CC1 [Example 294, N-(4-{[1-(2-methylpropanoyl)piperidin-4-yl]oxy}phenyl)-1-(pyridazin-4-yl)azetidine-3-carboxamide]	83.2
COc1ccc(C(=O)N2CCC(c3ccc(NC(=O)C4CN(c5cccnn5)C4)cc3)CC2)cc1 [Example 347, N-{4-[1-(4-methoxybenzoyl)piperidin-4-yl]phenyl}-1-(pyridazin-3-yl)azetidine-3-carboxamide]	8.06
CC(C)CCC(=O)N1CC(Oc2ccc(NC(=O)C3CN(c4ccnnc4)C3)cc2)C1 [Example 263, N-(4-{[1-(4-methylpentanoyl)azetidin-3-yl]oxy}phenyl)-1-(pyridazin-4-yl)azetidine-3-carboxamide]	59.5
O=C(Nc1ccc(OC2CCN(C(=O)Cc3ccccc3F)CC2)cc1)C1CN(c2ccnnc2)C1 [Example 308, N-[4-({1-[(2-fluorophenyl)acetyl]piperidin-4-yl}oxy)phenyl]-1-(pyridazin-4-yl)azetidine-3-carboxamide]	61.4
O=C(Nc1ccc(OC2CCN(C(=O)CC3CCOCC3)CC2)cc1)C1CN(c2cnccc2C(F)(F)F)C1 [Example 7, N-(4-{[1-(tetrahydro-2H-pyran-4-ylacetyl)piperidin-4-yl]oxy}phenyl)-1-[4-(trifluoromethyl)pyridin-3-yl]azetidine-3-carboxamide]	876
O=C(Nc1ccc(C2CCN(C(=O)CC3CCCC3)CC2)cc1)[C@H]1CCN(c2cccnc2)C1 [Example 204, (3S)—N-{4-[1-(cyclopentylacetyl)piperidin-4-yl]phenyl}-1-(pyridin-3-yl)pyrrolidine-3-carboxamide]	24.5
O=C(Nc1ccc(O[C@@H]2CCN(C(=O)c3ccc(F)cc3)C2)cc1)[C@H]1CCN(c2cccnn2)C1 [Example 777, (3S)-N-(4-{[(3R)-1-(4-fluorobenzoyl)pyrrolidin-3-yl]oxy}phenyl)-1-(pyridazin-3-yl)pyrrolidine-3-carboxamide]	19.2
O=C(Nc1ccc(O[C@@H]2CCN(C(=O)C3CCC(F)(F)CC3)C2)cc1)C1CN(c2ccnnc2)C1 [Example 482, N-[4-({(3R)-1-[(4,4-difluorocyclohexyl)carbonyl]pyrrolidin-3-yl}oxy)phenyl]-1-(pyridazin-4-yl)azetidine-3-carboxamide]	32.6
O=C(Nc1ccc(C2(O)CCN(C(=O)OCc3ccccc3)CC2)cc1)C1CN(c2ccc(Cl)nn2)C1 [Example 854, benzyl 4-[4-({[1-(6-chloropyridazin-3-yl)azetidin-3-yl]carbonyl}amino)phenyl]-4-hydroxypiperidine-1-carboxylate]	> 10000
O=C(Nc1ccc(C2CCN(C(=O)CC[N+](=O)[O-])CC2)cc1)C1CN(c2cccnn2)C1 [Example 336, N-{4-[1-(3-nitropropanoyl)piperidin-4-yl]phenyl}-1-(pyridazin-3-yl)azetidine-3-carboxamide]	8.26
Cc1ncccc1N1CC(C(=O)Nc2ccc(C3CCN(C(=O)CC(C)C)CC3)cc2)C1 [Example 197, N-{4-[1-(3-methylbutanoyl)piperidin-4-yl]phenyl}-1-(2-methylpyridin-3-yl)azetidine-3-carboxamide]	103

The next molecules have a lower IC50 than those just listed; values first:

IC50 [nM]	SMILES
1.98	O=C(Nc1ccc(C2CCN(C(=O)c3ccccc3)CC2)cc1F)C1CN(c2ccnnc2)C1 [Example 869, N-[4-(1-benzoylpiperidin-4-yl)-2-fluorophenyl]-1-(pyridazin-4-yl)azetidine-3-carboxamide]
0.23	CC(=O)N[C@@H](CC(C)C)C(=O)N1CCC(c2ccc(NC(=O)C3CN(c4cccnc4)C3)cc2)CC1 [Example 120, N-{4-[1-(N-acetyl-L-leucyl)piperidin-4-yl]phenyl}-1-(pyridin-3-yl)azetidine-3-carboxamide]
2.83	CCCCCCC(=O)N1CCC(c2ccc(NC(=O)C3CN(c4cccnn4)C3)cc2)CC1 [Example 329, N-[4-(1-heptanoylpiperidin-4-yl)phenyl]-1-(pyridazin-3-yl)azetidine-3-carboxamide]
6.64	O=C(Nc1ccc(O[C@@H]2CCN(C(=O)c3cscn3)C2)cc1)C1CN(c2cccnn2)C1 [Example 498, 1-(pyridazin-3-yl)-N-(4-{[(3R)-1-(1,3-thiazol-4-ylcarbonyl)pyrrolidin-3-yl]oxy}phenyl)azetidine-3-carboxamide]
0.3	COCC(=O)N1CCC(c2ccc(NC(=O)C3CN(c4cccnc4)C3)cc2)CC1 [Example 135, N-{4-[1-(methoxyacetyl)piperidin-4-yl]phenyl}-1-(pyridin-3-yl)azetidine-3-carboxamide]
0.31	CC(C)CC(=O)N1CCC(c2ccc(NC(=O)C3CN(c4cccnc4)C3)cc2)CC1 [Example 137, N-{4-[1-(3-methylbutanoyl)piperidin-4-yl]phenyl}-1-(pyridin-3-yl)azetidine-3-carboxamide]
2	O=C(Nc1ccc(C2CCN(C(=O)c3cccc(F)c3)CC2)cc1)C1CN(c2cccnn2)C1 [Example 348, N-{4-[1-(3-fluorobenzoyl)piperidin-4-yl]phenyl}-1-(pyridazin-3-yl)azetidine-3-carboxamide]
7.06	Cc1cc(C)cc(CC(=O)N2CCC(c3ccc(NC(=O)C4CN(c5cccnn5)C4)cc3)CC2)c1 [Example 372, N-(4-{1-[(3,5-dimethylphenyl)acetyl]piperidin-4-yl}phenyl)-1-(pyridazin-3-yl)azetidine-3-carboxamide]
